# Patent US20110009416A1, “PH INDEPENDENT FORMULATIONS OF 6-(5-CHLORO-2-PYRIDYL)-5-[(4-METHYL-1-PIPERAZINYL)CARBONYLOXY]-7-OXO-6,7-DIHYDRO-5H-PYRROLO[3,4-b]PYRAZINE” (SEPRACOR INC., priority 2009, published 2011)
# Test: Dissolution over time of uncoated 3 mg eszopiclone tablets (Hanson SR8-Plus apparatus, fiber optic UV at 305 nm)
# Assay type: physicochemical
# Method: Dissolution over time of eszopiclone free base compounded with various solid acids was compared to that of free base at body temperature (37° C.) in dissolution media at various pH values using Hanson Research SR8—Plus Dissolution Apparatus and C-Technologies Fiber Optic UV Probes at 305 nm (excipients subtracted at 410 nm). The dissolution media used were (a) pH 1 (0.1N HCl) 50 ml of conc HCl mixed in 6 L of water; (b) pH 4.5 acetate buffer (20 mM) 5.88 g of sodium acetate trihydrate dissolved in 6 L of water, pH adjusted to 4.5 with acetic acid; (c) pH 5.5 phosphate buffer (20 mM) 16.3 g of potassium dihydrogen phosphate in 6 L of water. pH adjusted to 5.5 with NaOH; (d) pH 6.8 phosphate buffer (20 mM) 16.3 g of potassium dihydrogen phosphate in 6 L of water. pH adjusted 6.8 with NaOH. A standard dissolution protocol was used. The standard solution (0.006 mg/mL of eszopiclone free base) was prepared by weighing a known amount (−20 mg) of the free base into a 100 mL volumetric flask. 10 mL of acetonitrile was added into the flask and sonicated until the solids dissolved completely. The solution was cooled to room temperature and made up to the 100 mL mark using media and mixed well. Dilute 3 mL to 100 mL using media. The tables were prepared by transferring 500 mL dissolution media into the 6 vessels. Blank readings were taken for all the probes using media. Standards were read for individual vessels. Probes were washed with media and then inserted back into each vessel. […] The dissolution program was started immediately and readings were taken at 305 nm for 60 min (every 1 min for 20 min and then every 10 min)
# The following tables display results of dissolution experiments in deionized (DI) water of uncoated tablets formed from 3 mg free base IR eszopiclone (with no more than 0.3% (R)-zopiclone) with various acids. […] The pH values of the media was measured using a pH paper, in-situ at various time points during the dissolution experiment run in deionized (DI) water of uncoated tablets formed from 3 mg free base IR eszopiclone with 12% L-malic acid. […]
smiles,measurement,setting,value
"CN1CCN(C(=O)O[C@H]2c3nccnc3C(=O)N2c2ccc(Cl)cn2)CC1 [free base, [(9S)-8-(5-chloropyridin-2-yl)-7-oxo-2,5,8-triazabicyclo[4.3.0]nona-1,3,5-trien-9-yl]-4-methyl piperazine-1-carboxylate]",dissolution profile in water (in words),"in water, FIG. 2 and FIG. 4, up to one hour",slow and incomplete
same,dissolved at one hour,"in water, FIG. 4, one hour",less than 50%
same,dissolution profile at pH 1 (in words),"pH 1, FIG. 3",dissolve rapidly and completely
